Laboratory results from publication PMC9939292, “Cefoselis enhances breast cancer chemosensitivity by directly targeting GRP78/LRP5 signalling of cancer stem cells” (Clinical and Translational Medicine, 2023).

Target: T1, recombinant GRP78 protein (Homo sapiens, UniProt P11021)
T1 construct: gene HSPA5; recombinant GRP78
Assay: isothermal titration calorimetry; also SPR small molecule microarray
Assay type: binding
Text: isothermal titration calorimetry; also SPR small molecule microarray on recombinant GRP78 protein | measure the binding affinity of cefoselis with the recombinant GRP78 protein

T1 sequence (P11021 19-654): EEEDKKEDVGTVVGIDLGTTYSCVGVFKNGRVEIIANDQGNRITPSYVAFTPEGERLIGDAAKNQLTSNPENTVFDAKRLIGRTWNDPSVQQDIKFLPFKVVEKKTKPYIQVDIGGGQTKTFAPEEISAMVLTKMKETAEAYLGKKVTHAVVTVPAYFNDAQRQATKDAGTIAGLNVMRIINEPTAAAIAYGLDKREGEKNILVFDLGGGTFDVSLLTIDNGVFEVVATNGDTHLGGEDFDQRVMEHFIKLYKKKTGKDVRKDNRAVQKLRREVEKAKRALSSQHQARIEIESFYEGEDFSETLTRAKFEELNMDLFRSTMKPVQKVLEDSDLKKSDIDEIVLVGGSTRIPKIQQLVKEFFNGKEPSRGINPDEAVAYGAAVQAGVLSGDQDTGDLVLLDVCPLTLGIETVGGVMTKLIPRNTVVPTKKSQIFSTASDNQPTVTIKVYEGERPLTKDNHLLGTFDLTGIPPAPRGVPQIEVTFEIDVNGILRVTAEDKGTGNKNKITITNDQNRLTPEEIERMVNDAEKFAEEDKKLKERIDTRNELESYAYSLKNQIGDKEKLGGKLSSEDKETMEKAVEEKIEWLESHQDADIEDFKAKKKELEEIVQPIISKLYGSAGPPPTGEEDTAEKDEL

Kd: 0.463 µM
SMILES: CO/N=C(\C(=O)N[C@@H]1C(=O)N2C(C(=O)[O-])=C(C[n+]3ccc(N)n3CCO)CS[C@H]12)c1csc(N)n1 [cefoselis]
